19 compounds from patent publication US7632829B2, “Diazepan derivatives” (Hoffmann-La Roche Inc., priority 2006, dated 2009) can be followed below.

This assay addresses T1, human chemokine receptor 2 isoform B (Homo sapiens, UniProt P41597).
T1 construct: host or cells: CHOK1-CCR2B-A5 (CHO-K1)
T1 sequence (P41597 1-360 isoform P41597-2): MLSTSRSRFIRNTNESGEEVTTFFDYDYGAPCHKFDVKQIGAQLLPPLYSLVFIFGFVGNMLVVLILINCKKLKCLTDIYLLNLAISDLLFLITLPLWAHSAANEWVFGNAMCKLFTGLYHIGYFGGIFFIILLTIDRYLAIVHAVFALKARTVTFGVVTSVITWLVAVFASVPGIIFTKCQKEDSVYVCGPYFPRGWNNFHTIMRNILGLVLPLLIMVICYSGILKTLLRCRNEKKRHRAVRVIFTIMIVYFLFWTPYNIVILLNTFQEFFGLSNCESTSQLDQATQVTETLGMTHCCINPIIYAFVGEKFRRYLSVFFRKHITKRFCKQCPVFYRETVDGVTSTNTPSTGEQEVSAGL
As to the kind of experiment: Calcium mobilization assay (FLIPR, CHOK1-CCR2B-A5 cells, 20 nM MCP-1). Conditions: Ca mobilisation assay, CCR2, antagonist activity vs 20 nM MCP-1. It is filed as cell-based. Put shortly:
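Antagonism read as IC50 against 20 nM MCP-1-evoked calcium rise (peak minus baseline Fluo-4 signal, FLIPR) in CCR2B-overexpressing CHO-K1 cells. Compounds were preincubated 20-30 min at 30 °C, with agonist activity recorded for 80 s on addition.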
A general note: Calcium flux is commonly read through the fluorescence of an indicator in the cells.

The IC50 is the concentration that gives 50% inhibition. Regarding `O=C1CC2(CCN(CCCN3CCN(C(=O)/C=C/c4ccc(Cl)c(Cl)c4)CCC3=O)CC2)CN1` [Example 88, 8-(3-{4-[(E)-3-(3,4-Dichloro-phenyl)-acryloyl]-7-oxo-[1,4]diazepan-1-yl}-propyl)-2,8-diaza-spiro[4.5]decan-3-one], the IC50 turned out to be 0.757 µM.
Next, `COC(=O)NC1CCN(CCCCN2CCN(C(=O)/C=C/c3ccc(F)c(Cl)c3)CCC2=O)CC1` [Example 401]: 0.092 µM; `COC[C@H]1CCN(CCCCN2CCN(C(=O)/C=C/c3ccc(Cl)c(Cl)c3)CCC2=O)C[C@H]1OC` (racemic) [Example 470]: 0.085 µM; `O=C(/C=C/c1ccc(F)c(Cl)c1)N1CCC(=O)N(CCCN2CCC3(CC3)C(O)C2)CC1` (stereo not shown) [Example 192]: 0.015 µM.
Next, `O=C(O)C(CCCN1CCCCC1)N1CCN(C(=O)/C=C/c2ccc(Cl)c(Cl)c2)CCC1=O` (racemic) [Example 180, Lithium; (rac)-2-{4-[(E)-3-(3,4-dichloro-phenyl)-acryloyl]-7-oxo-[1,4]diazepan-1-yl}-5-piperidin-1-yl-pentanoate]: 0.319 µM; `O=C(/C=C/c1ccc(Cl)c(Cl)c1)N1CCC(=O)N(CCCCN2CCC(O)C3(CC3)C2)CC1` (racemic) [Example 457]: 0.283 µM.
Turning to `CC1(CO)CCN(CC(O)CN2CCN(C(=O)C=Cc3ccc(F)c(Cl)c3)CCC2=O)CC1O` [Example 340, 1-[(E)-3-(3-Chloro-4-fluoro-phenyl)-acryloyl]-4-[(S)-2-hydroxy-3-((cis)-3-hydroxy-4-hydroxymethyl-4-methyl-piperidin-1-yl)-propyl]-[1,4]diazepan-5-one], the IC50 stood at 0.019 µM.
Turning to `O=C(/C=C/c1ccc(Cl)c(Cl)c1)N1CCC(=O)N(CCCCN2CC[C@H](CO)[C@H](O)C2)CC1` (racemic) [Example 468], the IC50 came to 0.347 µM.
With `O=C(/C=C/c1ccc(Cl)c(Cl)c1)N1CCC(=O)N(CCCN2CCC(c3cc[nH]n3)CC2)CC1` [Example 57, 1-[(E)-3-(3,4-Dichloro-phenyl)-acryloyl]-4-{3-[4-(1H-pyrazol-3-yl)-piperidin-1-yl]-propyl}-[1,4]diazepan-5-one], the half-inhibitory concentration (IC50) came out at 0.217 µM.
Then `O=C(/C=C/c1ccc(Cl)c(Cl)c1)N1CCC(=O)N(CCCCN2CCOCC2)CC1` [Example 155, 1-[(E)-3-(3,4-Dichloro-phenyl)-acryloyl]-4-(4-morpholin-4-yl-butyl)-[1,4]diazepan-5-one], with 0.37 µM.
Next, `CC1CCCN(CC(O)CCN2CCN(C(=O)/C=C/c3ccc(Cl)c(Cl)c3)CCC2=O)C1` (racemic) [Example 376]: 0.416 µM; `O=C(/C=C/c1ccc(Cl)c(Cl)c1)N1CCC(=O)N(CCCCN2CCCC(CO)C2)CC1` (racemic) [Example 425]: 0.089 µM; `O=C(/C=C/c1ccc(Cl)c(Cl)c1)N1CCC(=O)N(CCC(O)CN2CCCC(O)C2)CC1` (racemic) [Example 171, (rac)-1-[(E)-3-(3,4-Dichloro-phenyl)-acryloyl]-4-[3-hydroxy-4-(3-hydroxy-piperidin-1-yl)-butyl]-[1,4]diazepan-5-one]: 0.995 µM.
In the case of `CC1CCN(CCCN2CCN(C(=O)/C=C/c3ccc(Cl)c(Cl)c3)CCC2=O)CC1O` (racemic) [Example 238], the concentration for half-maximal inhibition (IC50) came out at 0.054 µM.
For the compound `COC(=O)NC1CCCN(CCCN2CCN(C(=O)/C=C/c3ccc(Cl)c(Cl)c3)CCC2=O)C1` (racemic) [Example 256], the IC50 was 1.07 µM.
Then `CC(C)N1CCN(CC(O)CN2CCN(C(=O)/C=C/c3ccc(Cl)c(Cl)c3)CCC2=O)CC1` (racemic) [Example 296], with 0.298 µM; and `NC(=O)COC1CCC(CO)N(CCCCN2CCN(C(=O)/C=C/c3ccc(Cl)c(Cl)c3)CCC2=O)C1` (racemic) [Example 485], with 0.075 µM; and `CC1CCC(O)CN1CCCCN1CCN(C(=O)/C=C/c2ccc(Cl)c(Cl)c2)CCC1=O` (racemic) [Example 475], with 0.02 µM.
Take `O=C(/C=C/c1ccc(F)c(Cl)c1)N1CCC(=O)N(CCCN2CCCCC2CO)CC1` (racemic) [Example 210]: the IC50 turned out to be 1.14 µM.
